The text below walks through data of US4634704A, “Anti-allergic five membered heterocyclic ring containing N-(bicyclic heterocycyl)-4-piperidinamines” (Janssen Pharmaceutica, N.V., priority 1984, dated 1987).

The structures appear in SMILES notation. Where a name gives a salt, the structure may show the parent alone. Read-outs that look alike come from different tables or passages of the source.

Experiment [1] deals with effects of serotonin in the gastric lesion test. To be noted: rats injected with compound 48/80; known serotonin-antagonists; cited from earlier work.
Experiment [2] relates to compound 48/80-induced lethality. In words: Protection of rats from compound 48/80-induced lethality. The class given is in vivo, rat (male, inbred Wistar strain). To be noted: subcutaneous or oral, 1 h before compound 48/80 0.5 mg/kg i.v., survival after 4 h; for ED50: Rattus norvegicus, 4 h, read-out: compound 48/80 lethality test in rats-ED50, dose protecting 50% of animals. On the procedure: Protection of rats from compound 48/80-induced lethality.
The protection from compound 48/80-induced lethal circulatory collapse appears to be a simple way of evaluating quantitatively the antihistaminic activity of test compounds. Male rats of an inbred Wistar strain, weighing 240-260 g were used in the experiment. After overnight starvation the rats were transferred to conditioned laboratories (temp.=21±1° C., relative humidity=65±5%).
The rats were treated subcutaneously or orally with a test compound or with the solvent (NaCl solution, 0.9%). […] Survival after 4 hours is therefore considered to be a safe criterion of a protective effect of drug administration.
The ED50 -values of the compounds of formula (I) are listed in the first column of table 1. Said ED50 -values are the values in mg/kg body weight at which the tested compounds protect 50% of the tested animals against compound 48/80-induced lethality.

The subject of experiment [3] is effects of serotonin in the gastric lesion test. Kind of experiment: Antagonistic activity on the effects of serotonin in the gastric lesion test (lesions induced by compound 48/80). The class given is in vivo, rat (male, Wistar inbred strain). The source says:
The compounds of formula (I) and the pharmaceutically acceptable acid addition salts thereof are also potent serotonin-antagonists. The potency of the subject compounds as serotonin-antagonists is clearly evidenced by the results obtained in the following tests wherein the antagonistic activity of the subject compounds on the effect of serotonin is examined.
Antagonistic activity on the effects of serotonin in the gastric lesion test.
The shock, followed by dead, can be avoided if the rats are pretreated with a classical H 1 antagonist.
Male rats of a Wistar inbred strain, weighing 220-250 g, were starved overnight, water being available ad libitum. The test compounds were administered orally as a solution or as a suspension in aqueous medium. A control rat and a "blank" rat received the test compound. One hour later 5-[4-(diphenylmethyl)-1-piperazinylmethyl]-1-methyl-1H-benzimidazole-2-methanol was administered subcutaneously to all rats at the dose of 2.5 mg/kg.
Four hours after the intravenous injection of compound 48/80, the rats were decapitated and the stomachs were removed. Subsequently the stomachs were inspected for distension and contents (blood, fluid, food) and thoroughly rinsed. The macroscopic lesions were scored from 0 to +++, 0 corresponding to the complete absence of visible lesions and the highest score corresponding to reddish rough patches covering more than half the glandular area.

[4] abbreviates: Rattus norvegicus; read-out: gastric lesion test ED50.
The mark [5] stands for this setting: Rattus norvegicus, read-out: gastric lesion test ED50.

In the case of `CN(C)CCCSc1ccccc1NC(=O)/C=C/c1ccccc1` [cinanserin], the “prevention of cyanosis of ears and extremities, lesions in the glandular area of the stomach and abnormal gastric distension” value in experiment [1] is “prevent completely”.
For the molecule `CNC(=O)N(CCN1CCC(Nc2nc3ccccc3n2Cc2ccc(F)cc2)CC1)c1nccs1` [Compound 103, N-[2-[4-[[1-[(4-fluorophenyl)methyl]-1H-benzimidazol-2-yl]amino]-1-piperidinyl]ethyl]-N'-methyl-N-(2-thiazolyl)urea], the ED50 in experiment [2] was 0.08 mg/kg; in experiment [3] (setting [4]), 0.63 mg/kg.
On the same counts, the results for `Fc1ccccc1Cn1c(NC2CCN(CCNc3nccs3)CC2)nc2ccccc21` [Compound 31] are 0.08 mg/kg and 0.63 mg/kg.
On the same counts, the results for `CNc1nc(CCN2CCC(Nc3nc4ccccc4n3Cc3ccc(F)cc3)CC2)cs1` [Compound 98, 1-[(4-fluorophenyl)methyl]-N-[1-[2-[2-(methylamino)-4-thiazolyl]-ethyl]-4-piperidinyl]-1H-benzimidazol-2-amine] are 0.16 mg/kg and 0.16 mg/kg.
Take `CN1CCC(=C2c3ccccc3C=Cc3ccccc32)CC1` [cyproheptadine]: the “prevention of cyanosis of ears and extremities, lesions in the glandular area of the stomach and abnormal gastric distension” value in experiment [1] is on record as “prevent completely”.
For the molecule `Nc1nnc(NCCN2CCC(Nc3nc4ccccc4n3Cc3ccc(F)cc3)CC2)s1` [Compound 18], the ED50 stood at 0.02 mg/kg in experiment [2] and 0.04 mg/kg in experiment [3] (setting [5]).
On the same counts, the results for `Cc1sc(N)nc1CCN1CCC(Nc2nc3ccccc3n2Cc2ccc(F)cc2)CC1` [Compound 94, N-[1-[2-(2-amino-5-methyl-4-thiazolyl)ethyl]-4-piperidinyl]-1-[(4-fluorophenyl)methyl]-1H-benzimidazol-2-amine] are 0.08 mg/kg and 0.08 mg/kg.
`Cc1nc[nH]c1CN1CCC(Nc2nc3ccccc3n2Cc2ccc(F)cc2)CC1` [Compound 7, 1-(4-fluorophenylmethyl)-N-[1-[(4-methyl-1H-imidazol-5-yl)methyl]-4-piperidinyl]-1H-benzimidazol-2-amine]: the ED50 in experiment [2] is 0.02 mg/kg; in experiment [3] (setting [4]), 0.31 mg/kg.
Regarding `CC(C)n1ccnc1NCCN1CCC(Nc2nc3ccccc3n2Cc2ccc(F)cc2)CC1.O` [Compound 81, 1-[(4-fluorophenyl)methyl]-N-[1-[2-[[1-(1-methylethyl)-1H-imidazol-2-yl]amino]-ethyl]-4-piperidinyl]-1H-benzimidazol-2-amine mono hydrate], the ED50 in experiment [2] turned out to be 0.04 mg/kg; in experiment [3] (setting [4]) it was 0.31 mg/kg.
For the molecule `Cc1ccccc1Cn1c(NC2CCN(CCNc3nccs3)CC2)nc2ccccc21` [Compound 29], the ED50 in experiment [2] and in experiment [3] (setting [4]) was 0.63 mg/kg in each case.
With `Fc1ccc(Cn2c(NC3CCN(CCOc4nccs4)CC3)nc3ccccc32)cc1` [Compound 72, 1-[(4-fluorophenyl)methyl]-N-[1-[2-(2-thiazolyloxy)ethyl]-4-piperidinyl]-1H-benzimidazol-2-amine], the figures for the ED50 in experiment [2] and in experiment [3] (setting [4]) were 0.08 mg/kg and 0.63 mg/kg, respectively.
On the same counts, the results for `c1coc(Cn2c(NC3CCN(CCNc4nccs4)CC3)nc3ccccc32)c1` [Compound 48, 1-(2-furanylmethyl)-N-[1-[2-(2-thiazolylamino)ethyl]-4-piperidinyl]-1H-benzimidazol-2-amine] are 0.08 mg/kg and 0.63 mg/kg.
Turning to `c1ccc2c(c1)nc(NC1CCN(CCNc3nccs3)CC1)n2Cc1cscn1` [Compound 49, N-[1-[2-(2-thiazolylamino)ethyl]-4-piperidinyl]-1-(4-thiazolylmethyl)-1H-benzimidazol-2-amine ethanedioate (2:5)], the ED50 in experiment [2] is 0.04 mg/kg; in experiment [3] (setting [4]), 0.63 mg/kg.
Regarding `Cn1ccnc1SCCN1CCC(Nc2nc3ccccc3n2Cc2ccc(F)cc2)CC1` [Compound 75, 1-[(4-fluorophenyl)methyl]-N-[1-[2-[(1-methyl-1H-imidazol-2-yl)thio]ethyl]-4-piperidinyl]-1H-benzimidazol-2-amine], the ED50 in experiment [2] and in experiment [3] (setting [5]) was 0.08 mg/kg throughout.
As to `Fc1ccc(Cn2c(NC3CCN(CCNc4nc(-c5ccccn5)cs4)CC3)nc3ccccc32)cc1` [Compound 87], the ED50 stood at 0.31 mg/kg in experiment [2] and 0.63 mg/kg in experiment [3] (setting [4]).
Turning to `Fc1ccc(Cn2c(NC3CCN(CCCCCNc4nccs4)CC3)nc3ccccc32)cc1` [Compound 21], the results for the ED50 in experiment [2] and in experiment [3] (setting [4]) were 0.16 mg/kg and 0.31 mg/kg, respectively.
`Cc1ccc(Cn2c(NC3CCN(CCNc4nccs4)CC3)nc3ccccc32)cc1` [Compound 62]: the ED50 turned out to be 0.16 mg/kg in experiment [2] and 0.63 mg/kg in experiment [3] (setting [4]).
The matching figures for `Clc1ccc(Cn2c(NC3CCN(CCNc4nccs4)CC3)nc3ccccc32)cc1` [Compound 25]: 0.31 mg/kg and 0.63 mg/kg.
The matching figures for `c1csc(Cn2c(NC3CCN(CCNc4nccs4)CC3)nc3ccccc32)c1` [Compound 28]: 0.08 mg/kg and 0.02 mg/kg.
As to `Fc1ccc(Cn2c(NC3CCN(CCNc4ncc[nH]4)CC3)nc3ccccc32)cc1` [Compound 79, 1-[(4-fluorophenyl)methyl]-N-[1-[2-(1H-imidazol-2-ylamino)ethyl]-4-piperidinyl]-1H-benzimidazol-2-amine], the ED50 was 0.02 mg/kg in experiment [2] and 0.04 mg/kg in experiment [3] (setting [5]).
For `Fc1ccc(Cn2c(NC3CCN(C4CCN(c5nccs5)CC4)CC3)nc3ccccc32)cc1` [Compound 52], the ED50 in experiment [2] is 1.25 mg/kg; in experiment [3] (setting [4]), 0.63 mg/kg.
On the same counts, the results for `Fc1ccc(Cn2c(NC3CCN(CCNc4nccs4)CC3)nc3cccnc32)cc1` [Compound 17] are 0.02 mg/kg and 0.16 mg/kg.
With `Fc1ccc(Cn2c(NC3CCN(CCNc4nccs4)CC3)nc3ccccc32)cc1` [Compound 58], the “compound 48/80 lethality test in rats-ED50” value in experiment [2] (dose protecting 50% of animals, 0.5 mg/kg, 240 min) is 0.02 mg/kg body weight. The ED50 in experiment [3] (setting [5]) turned out to be 0.04 mg/kg.
Turning to `Cc1csc(NCCN2CCC(Nc3nc4ccccc4n3Cc3ccc(F)cc3)CC2)n1` [Compound 85, 1-[(4-fluorophenyl)methyl]-N-[1-[2-[(4-methyl-2-thiazolyl)amino]ethyl]-4-piperidinyl]-1H-benzimidazol-2-amine], the ED50 in experiment [2] was 0.08 mg/kg; in experiment [3] (setting [5]) it was 0.04 mg/kg.
`Cc1coc(NCCN2CCC(Nc3nc4ccccc4n3Cc3ccc(F)cc3)CC2)n1` [Compound 84, 1-[(4-fluorophenyl)methyl]-N-[1-[2-[(4-methyl-2-oxazolyl)amino]ethyl]-4-piperidinyl]-1H-benzimidazol-2-amine]: the ED50 turned out to be 0.16 mg/kg in experiment [2] and 0.63 mg/kg in experiment [3] (setting [4]).
On the same counts, the results for `Cc1nnc(NCCN2CCC(Nc3nc4ccccc4n3Cc3ccc(F)cc3)CC2)s1` [Compound 15, 1-[(4-fluorophenyl)methyl]-N-[1-[2-[(5-methyl-1,3,4-thiadiazol-2-yl)amino]ethyl]-4-piperidinyl]-1H-benzimidazol-2-amine] are 0.04 mg/kg and 0.31 mg/kg.
The matching figures for `Fc1ccc(Cn2c(NC3CCN(CCNc4nc(-c5ccncc5)cs4)CC3)nc3ccccc32)cc1` [Compound 86]: 0.31 mg/kg and 1.25 mg/kg.
On the same counts, the results for `O=C(c1ccccc1)N(CCN1CCC(Nc2nc3ccccc3n2Cc2ccc(F)cc2)CC1)c1nccs1` [Compound 100, N-[2-[4-[[1-[(4-fluorophenyl)methyl]-1H-benzimidazol-2-yl]amino]-1-piperidinyl]ethyl]-N-(2-thiazolyl)benzamide] are 0.31 mg/kg and 0.63 mg/kg.
`CC(=O)N(CCN1CCC(Nc2nc3ccccc3n2Cc2ccc(F)cc2)CC1)c1nccs1` [Compound 102, N-[2-[4-[[1-[(4-fluorophenyl)methyl]-1H-benzimidazol-2-yl]-amino]-1-piperidinyl]ethyl]-N-(2-thiazolyl)acetamide]: the ED50 in experiment [2] came to 0.16 mg/kg; in experiment [3] (setting [4]), 1.25 mg/kg.
Consider `CC(c1ccc(Cl)cc1)n1ccnc1NCCN1CCC(Nc2nc3ccccc3n2Cc2ccc(F)cc2)CC1` (centres unmarked) [Compound 106, N-[1-[2-[[1-[1-(4-chlorophenyl)ethyl]-1H-imidazol-2-yl]amino]ethyl]-4-piperidinyl]-1-[(4-fluorophenyl)methyl]-1H-benzimidazol-2-amine cyclohexanesulfamate(1:3).dihydrate], for which, in experiment [2], the ED50 was 0.63 mg/kg.
For `N=C(N)Nc1nc(CCN2CCC(Nc3nc4ccccc4n3Cc3ccc(F)cc3)CC2)cs1` [Compound 90, N-[4-[2-[4-[[1-[(4-fluorophenyl)methyl]-1H-benzimidazol-2-yl]amino]-1-piperidinyl]ethyl-2-thiazolyl]guanidinetrihydrobromide], the ED50 in experiment [2] was determined as 0.04 mg/kg; in experiment [3] (setting [4]), 0.31 mg/kg.
